We go through four compounds from ChEMBL document CHEMBL3817836, “One small molecule as a theranostic agent: naphthalimide dye for subcellular fluorescence localization and photodynamic therapy in vivo” (Medchemcomm, 2016).

Each structure is given as a SMILES string. pIC50: −log10 of the molar value. Activity calls are given as the source filed them. No cut-off for these calls is given here.

Data set [1] is described as follows: Toxicity against human MCF7 cells assessed as reduction in cell viability measured after 48 hrs by MTT assay. The class given is cell-based.
The subject of data set [2] is MCF7. Nature of the data set: Photo-cytotoxicity against human MCF7 cells assessed as reduction in cell viability incubated for 48 hrs followed by 28.8 J/cm2 laser irradiation for 20 mins by MTT assay. In kind it is functional, cell-based. The settings on record: MCF7, light or radiation study.
For data set [3], the system named is MCF7. Description: Photo-cytotoxicity against human MCF7 cells assessed as induction of cell death incubated for 48 hrs followed by 28.8 J/cm2 laser irradiation dose 20 mins by MTT assay. The class given is functional, cell-based. In general terms: Formazan colour is commonly taken as a measure of viable cells.
The test system of data set [4] is MKN-45. Nature of the data set: Photo-cytotoxicity against human MKN45 cells assessed as induction of cell death incubated for 48 hrs followed by 28.8 J/cm2 laser irradiation dose 20 mins by MTT assay. In kind it is functional, cell-based.
The test system of data set [5] is HCT-116. Nature of the data set: Photo-cytotoxicity against human HCT116 cells assessed as induction of cell death incubated for 48 hrs followed by 28.8 J/cm2 laser irradiation dose 20 mins by MTT assay. The class given is functional, cell-based.
For data set [6], the system named is A-375. Description: Photo-cytotoxicity against human A375 cells assessed as induction of cell death incubated for 48 hrs followed by 28.8 J/cm2 laser irradiation dose 20 mins by MTT assay. The class given is functional, cell-based.
A short description of data set [7]: Cellular uptake in mitochondria of human […] cells at 2.5 uM incubated for 48 hrs followed by 28.8 J/cm2 laser irradiation for 20 mins by Mitotracker Red dye based confocal microscopy. The class given is ADME.
Data set [8] is described as follows: Cellular uptake in endoplasmic reticulum of human […] cells at 2.5 uM incubated for 48 hrs followed by 28.8 J/cm2 laser irradiation for 20 mins by ER tracker Red dye based confocal microscopy. In kind it is ADME, cell-based.
The subject of data set [9] is A-375. Nature of the data set: Antitumor activity against human A375 cells xenografted in nude mouse assessed as tumor size at 5 mg/kg administered twice week measured after 21 days (reference value: 4.31 +/- 0.38). In kind it is functional. On the technique in general: In xenograft studies the graft and the host belong to different species.
The nature of data set [10]: Cellular uptake in lysosome of human […] cells at 2.5 uM incubated for 48 hrs followed by 28.8 J/cm2 laser irradiation for 20 mins by lysosome Red dye based confocal microscopy. The class given is ADME, cell-based.
Data set [11] is described as follows: Cellular uptake in nucleus of human […] cells at 2.5 uM incubated for 48 hrs followed by 28.8 J/cm2 laser irradiation for 20 mins by DAPI dye based confocal microscopy. The class given is ADME, cell-based.
The subject of data set [12] is A-375. Description: Antitumor activity against human A375 cells xenografted in nude mouse exposed to 28.8 J/cm2 laser irradiation assessed as tumor size at 5 mg/kg administered twice week measured after 21 days (reference value: 4.31 +/- 0.38). The class given is functional.
In data set [13] the test system is Mus musculus. Description: Toxicity in nude mouse xenografted with human A375 cells exposed to 28.8 J/cm2 laser irradiation assessed as change in body weight at 5 mg/kg administered twice a week measured after 21 days. As to conditions: in vivo, 504 h. The class given is organism-based, A-375.
In data set [14] the test system is Mus musculus. Nature of the data set: Toxicity in nude mouse xenografted with human A375 cells assessed as change in body weight at 5 mg/kg administered twice a week measured after 21 days. As to conditions: in vivo, 504 h. In kind it is organism-based, A-375.
For data set [15], the system named is Mus musculus. Nature of the data set: Toxicity in nude mouse xenografted with human A375 cells assessed as tissue lesions at 5 mg/kg by hematoxylin-eosin staining method. The class given is organism-based, A-375. As to conditions: in vivo.
The subject of data set [16] is Mus musculus. Nature of the data set: Toxicity in nude mouse xenografted with human A375 cells exposed to 28.8 J/cm2 laser irradiation assessed as tissue lesions at 5 mg/kg by hematoxylin-eosin staining method. In kind it is organism-based, A-375. As to conditions: in vivo.
The test system of data set [17] is A-375. Description: Induction of apoptosis in human A375 cells exposed to 28.8 J/cm2 laser irradiation assessed as increase in intracellular ROS using DCFH-DA after 4 hrs by spectrofluorimetric method. In kind it is functional, cell-based.
Data set [18] has as its system A-375. Description: Induction of apoptosis in human A375 cells exposed to 28.8 J/cm2 laser irradiation assessed as increase in intracellular ROS using DCFH-DA after 12 hrs by spectrofluorimetric method. In kind it is functional, cell-based.
For data set [19], the system named is A-375. Description: Induction of apoptosis in human A375 cells exposed to 28.8 J/cm2 laser irradiation assessed as increase in caspase3 cleavage by western blot analysis. The class given is functional, cell-based. The settings on record: TDE = time-dependent effect. For orientation: A western blot detects proteins with antibodies after separation by electrophoresis.

For data set [20], the system named is A-375. Nature of the data set: Induction of apoptosis in human A375 cells exposed to 28.8 J/cm2 laser irradiation assessed as increase in PARP cleavage by western blot analysis. As to conditions: TDE = time-dependent effect. In kind it is functional, cell-based.
In data set [21] the test system is A-375. Nature of the data set: Induction apoptosis in human A375 cells xenografted into nude mouse exposed to 28.8 J/cm2 laser irradiation assessed as increase in cleaved capase-3 level at 5 mg/kg administered twice week measured after 21 days by immunohistochemistry assay. In kind it is functional, organism-based.
Data set [22] has as its system A-375. Nature of the data set: Induction of apoptosis in human A375 cells exposed to 28.8 J/cm2 laser irradiation assessed as nuclear condensation measured after 12 hrs by TUNEL assay. In kind it is functional, cell-based.
Data set [23] has as its system A-375. Nature of the data set: Induction of apoptosis in human A375 cells exposed to 28.8 J/cm2 laser irradiation assessed as nuclear fragmentation measured after 12 hrs by TUNEL assay. In kind it is functional, cell-based.
The subject of data set [24] is A-375. Nature of the data set: Induction of apoptosis in human A375 cells exposed to 28.8 J/cm2 laser irradiation assessed as apoptotic bodies measured after 12 hrs by TUNEL assay. The class given is functional, cell-based.
Data set [25] has as its system A-375. Description: Induction apoptosis in human A375 cells xenografted into nude mouse exposed to 28.8 J/cm2 laser irradiation at 5 mg/kg administered twice week measured after 21 days by TUNEL assay. In kind it is functional, organism-based.
The test system of data set [26] is A-375. Description: Induction apoptosis in human A375 cells xenografted into nude mouse at 5 mg/kg administered twice week measured after 21 days by TUNEL assay. The class given is functional, organism-based.
Data set [27] has as its system A-375. Description: Cellular uptake in human A375 cells at 2.5 uM incubated for 48 hrs followed by 28.8 J/cm2 laser irradiation for 20 mins by fluorescence microscopic imaging method. The settings on record: a-375, 48 h. In kind it is ADME, cell-based.

As for `O=C1c2cccc3c2c(cc2c4ccccc4sc32)C(=O)N1CCOCCO`, the IC50 – broadly, the concentration at which inhibition is half-maximal – at 48 h in data set [1] worked out at 18.8 µM. The pIC50 (as a rule, the negative decadic logarithm of the IC50, by convention in mol/L) in data set [2] is 4.94.

For `O=c1c2ccc3sc4ccccc4c4ccc(c(=O)n1CCOCCO)c2c34`, in data set [1], the IC50 at 48 h amounted to 18.2 µM. The pIC50 in data set [2] was 5.85.

As to `O=c1c2ccc3sc4ccc(Br)cc4c4ccc(c(=O)n1CCOCCO)c2c34`, the IC50 at 48 h in [1] is above 50 µM. The pIC50 in data set [2] was 5.58. Further, the Activity entry was “Dose-dependent effect” in [3]; “Dose-dependent effect” in data set [4]; “Dose-dependent effect” in [5]; “Dose-dependent effect” in [6]; “Non-toxic” in data set [13]; “Non-toxic” in data set [14]. Also, the Activity entry in [15] was “Toxic”; in data set [16] it was “Toxic”; in data set [19], “tde”; in data set [20], “tde”. Also, the Drug uptake entry in data set [7] is reported as “Active”; in [8] it was “Not Active”; in [10], “Not Active”; in data set [11], “Not Active”; in data set [27] it was “Active”. Further, the “fold change (FC)” value in [9] was found to be 3; in data set [12], 0.5. Besides, the result in data set [17], in data set [21], in data set [22], in data set [23], in data set [24] and in data set [25] was Active. The outcome in data set [18] and in [26] was inactive.

As for `O=C1c2cccc3c2c(cc2c4cc(Br)ccc4sc32)C(=O)N1CCOCCO`, in data set [1], the IC50 at 48 h is above 50 µM. In [2], the pIC50 was 4.73.
